The IC50 is the concentration needed to halve the response being measured. A higher IC50 goes with weaker potency.

We go through one compound from paper PMC11193019, “Transient kinetics reveal the mechanism of competitive inhibition of the neutral amino acid transporter ASCT2” (The Journal of Biological Chemistry, 2024).

What all share (assay type): cell-based
In assay [1] the target is T1, ASCT2 (rASCT2) (Rattus norvegicus, UniProt D3ZJ25, D489N).
T1 construct: gene Slc1a5; rASCT2 mutant expressed in HEK293T cells
T1 sequence (D3ZJ25 1-555 D489N): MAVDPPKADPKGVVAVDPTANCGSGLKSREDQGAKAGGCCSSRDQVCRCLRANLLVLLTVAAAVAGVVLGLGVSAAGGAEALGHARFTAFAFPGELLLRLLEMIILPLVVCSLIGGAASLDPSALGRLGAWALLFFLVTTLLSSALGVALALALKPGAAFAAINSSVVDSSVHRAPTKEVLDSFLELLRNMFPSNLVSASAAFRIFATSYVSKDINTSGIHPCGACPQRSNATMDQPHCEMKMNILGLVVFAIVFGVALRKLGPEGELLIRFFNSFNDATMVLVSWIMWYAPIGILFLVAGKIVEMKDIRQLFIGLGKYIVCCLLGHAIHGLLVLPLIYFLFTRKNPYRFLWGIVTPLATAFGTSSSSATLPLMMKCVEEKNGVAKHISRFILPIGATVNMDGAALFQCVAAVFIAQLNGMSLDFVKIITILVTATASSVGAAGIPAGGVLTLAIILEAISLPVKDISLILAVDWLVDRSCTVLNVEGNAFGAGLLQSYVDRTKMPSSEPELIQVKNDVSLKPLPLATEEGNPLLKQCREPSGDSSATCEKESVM
The assay is described as follows: whole-cell patch clamp, anion current dose response at […] Na+. On the technique in general: Patch clamp records ionic current or voltage across a cell membrane.

Assay [2] deals with T2, ASCT2 (rASCT2) (Rattus norvegicus, UniProt D3ZJ25).
T2 construct: gene Slc1a5; rASCT2 cDNA in pBK-CMV, expressed in HEK293T cells
T2 sequence (D3ZJ25 1-555): T1 sequence (D3ZJ25 1-555 D489N) with N489D
The assay is described as follows: whole-cell patch clamp (leak anion current block dose response; rapid solution exchange and displacement by serine).

The target in assay [3] is T3, ASCT2 (rASCT2) (Rattus norvegicus, UniProt D3ZJ25, D402N).
T3 construct: gene Slc1a5; rASCT2 mutant expressed in HEK293T cells
T3 sequence (D3ZJ25 1-555 D402N): T1 sequence (D3ZJ25 1-555 D489N) with D402N, N489D
Kind of assay: whole-cell patch clamp, anion current dose response at […] Na+.

Structures are written as SMILES. Residue numbers refer to the chain shown, from its start.

For `O=C(O[C@@H]1CN[C@H](C(=O)O)C1)c1ccc(-c2ccccc2)cc1` [Lc-BPE, L-cis hydroxyproline biphenyl ester], the half-maximal inhibitory concentration (IC50) against ASCT2 (rASCT2) [1] is 4.4 ± 0.8 µM; at ASCT2 (rASCT2) [2] it was 0.83 ± 0.2 µM; against ASCT2 (rASCT2) [3] it was 1.6 ± 0.1 µM.
